Values after ≈ are worked out from the molar mass of the structure shown.
Columns and labels:
Assay type in all cases: functional
Staphylococcus aureus [1] = test: Antibacterial activity against methicillin-susceptible Staphylococcus aureus clinical isolate after 18 hrs by agar dilution method
Staphylococcus aureus [2] = test: Antibacterial activity against Staphylococcus aureus ATCC 25923 after 18 hrs by agar dilution method in presence of 50% human plasma; conditions: ATCC 25923, Plasma
Staphylococcus [3] = test: Antibacterial activity against methicillin-susceptible coagulase-negative Staphylococcus clinical isolate after 18 hrs by agar dilution method
Staphylococcus aureus [4] = test: Antibacterial activity against Staphylococcus aureus ATCC 25923 after 18 hrs by agar dilution method; conditions: for MIC: Staphylococcus aureus, ATCC 25923, 18 h
Staphylococcus [5] = test: Antibacterial activity against methicillin-resistant coagulase-negative Staphylococcus clinical isolate after 18 hrs by agar dilution method
Enterococcus [6] = test: Antibacterial activity against vancomycin-resistant Enterococcus after 18 hrs by agar dilution method
Haemophilus influenzae = test: Antibacterial activity against Haemophilus influenzae clinical isolate after 18 hrs by agar dilution method
Streptococcus pneumoniae = test: Antibacterial activity against penicillin-resistant Streptococcus pneumoniae after 18 hrs by agar dilution method
Escherichia coli = test: Antibacterial activity against Escherichia coli ATCC 25922 after 18 hrs by agar dilution method; conditions: ATCC 25922, 18 h
Enterococcus [7] = test: Antibacterial activity against vancomycin-sensitive Enterococcus after 18 hrs by agar dilution method
Moraxella catarrhalis = test: Antibacterial activity against Moraxella catarrhalis clinical isolate after 18 hrs by agar dilution method
Staphylococcus aureus [8] = test: Antibacterial activity against methicillin-resistant Staphylococcus aureus clinical isolate after 18 hrs by agar dilution method; conditions: for MIC: Staphylococcus aureus, 18 h

SMILES | MIC (Staphylococcus aureus [1]) | MIC (Staphylococcus aureus [2]) | MIC (Staphylococcus [3]) | -logMIC (Staphylococcus aureus [4]) | MIC (Staphylococcus aureus [4]) | MIC (Staphylococcus [5]) | MIC (Enterococcus [6]) | MIC (Haemophilus influenzae) | MIC (Streptococcus pneumoniae) | MIC (Escherichia coli) | MIC (Enterococcus [7]) | MIC (Moraxella catarrhalis) | -logMIC (Staphylococcus aureus [8]) | MIC (Staphylococcus aureus [8])
CCCCCC(=O)N1CCN(c2ccc(N3C[C@H](Cn4ccnn4)OC3=O)cc2F)CC1 | 4 µg/mL (≈ 9 µM) | > 16 µg/mL | 1 µg/mL (≈ 2.25 µM) | 2.05 | 4 µg/mL (≈ 9 µM) | 1 µg/mL (≈ 2.25 µM) | 4 µg/mL (≈ 9 µM) | ≥ 8 µg/mL | 2 µg/mL (≈ 4.5 µM) | ≥ 8 µg/mL | 4 µg/mL (≈ 9 µM) | ≥ 8 µg/mL | 2.35 | 2 µg/mL (≈ 4.5 µM)
CCCCCCCCCCC(=O)N1CCN(c2ccc(N3C[C@H](Cn4ccnn4)OC3=O)cc2F)CC1 | > 16 µg/mL | > 16 µg/mL | > 16 µg/mL | 1.51 | > 16 µg/mL | – | – | ≥ 8 µg/mL | > 16 µg/mL | ≥ 8 µg/mL | > 16 µg/mL | ≥ 8 µg/mL | – | –
CCCCCCC(=O)N1CCN(c2ccc(N3C[C@H](Cn4ccnn4)OC3=O)cc2F)CC1 | 2 µg/mL (≈ 4.36 µM) | > 16 µg/mL | 1 µg/mL (≈ 2.18 µM) | 2.06 | 4 µg/mL (≈ 8.72 µM) | 2 µg/mL (≈ 4.36 µM) | 4 µg/mL (≈ 8.72 µM) | ≥ 8 µg/mL | 4 µg/mL (≈ 8.72 µM) | ≥ 8 µg/mL | 4 µg/mL (≈ 8.72 µM) | ≥ 8 µg/mL | 2.36 | 2 µg/mL (≈ 4.36 µM)
O=C(C1CCCC1)N1CCN(c2ccc(N3C[C@H](Cn4ccnn4)OC3=O)cc2F)CC1 | 1 µg/mL (≈ 2.26 µM) | 4 µg/mL | 1 µg/mL (≈ 2.26 µM) | 2.34 | 2 µg/mL (≈ 4.52 µM) | 1 µg/mL (≈ 2.26 µM) | 1 µg/mL (≈ 2.26 µM) | ≥ 8 µg/mL | 1 µg/mL (≈ 2.26 µM) | ≥ 8 µg/mL | 1 µg/mL (≈ 2.26 µM) | ≥ 8 µg/mL | 2.65 | 1 µg/mL (≈ 2.26 µM)
CC(=O)NC[C@H]1CN(c2ccc(N3CCOCC3)c(F)c2)C(=O)O1 [LINEZOLID] | 1 µg/mL (≈ 2.96 µM) | – | 0.25 µg/mL (≈ 0.741 µM) | – | – | 1 µg/mL (≈ 2.96 µM) | 2 µg/mL (≈ 5.93 µM) | ≥ 8 µg/mL | – | ≥ 8 µg/mL | 0.5 µg/mL (≈ 1.48 µM) | ≥ 8 µg/mL | – | 0.5 µg/mL (≈ 1.48 µM)
CCCCCCCC(=O)N1CCN(c2ccc(N3C[C@H](Cn4ccnn4)OC3=O)cc2F)CC1 | 4 µg/mL (≈ 8.46 µM) | > 16 µg/mL | 2 µg/mL (≈ 4.23 µM) | 2.07 | 8 µg/mL (≈ 16.9 µM) | 2 µg/mL (≈ 4.23 µM) | 4 µg/mL (≈ 8.46 µM) | ≥ 8 µg/mL | > 16 µg/mL | ≥ 8 µg/mL | 4 µg/mL (≈ 8.46 µM) | ≥ 8 µg/mL | 2.37 | 2 µg/mL (≈ 4.23 µM)
O=C(CC1CC2CCC1C2)N1CCN(c2ccc(N3C[C@H](Cn4ccnn4)OC3=O)cc2F)CC1 (stereo partly specified) | 2 µg/mL (≈ 4.14 µM) | > 16 µg/mL | 2 µg/mL (≈ 4.14 µM) | 2.08 | 4 µg/mL (≈ 8.29 µM) | 2 µg/mL (≈ 4.14 µM) | 4 µg/mL (≈ 8.29 µM) | ≥ 8 µg/mL | 4 µg/mL (≈ 8.29 µM) | ≥ 8 µg/mL | 2 µg/mL (≈ 4.14 µM) | ≥ 8 µg/mL | 2.38 | 2 µg/mL (≈ 4.14 µM)
CCCCCCCCCCCCCCCC(=O)N1CCN(c2ccc(N3C[C@H](Cn4ccnn4)OC3=O)cc2F)CC1 | > 16 µg/mL | > 16 µg/mL | > 16 µg/mL | 1.56 | > 16 µg/mL | – | – | ≥ 8 µg/mL | > 16 µg/mL | ≥ 8 µg/mL | > 16 µg/mL | ≥ 8 µg/mL | – | –
CN[C@H](CC(C)C)C(=O)N[C@H]1C(=O)N[C@@H](CC(N)=O)C(=O)N[C@H]2C(=O)N[C@H]3C(=O)N[C@H](C(=O)N[C@H](C(=O)O)c4cc(O)cc(O)c4-c4cc3ccc4O)[C@H](O)c3ccc(c(Cl)c3)Oc3cc2cc(c3O[C@@H]2O[C@H](CO)[C@@H](O)[C@H](O)[C@H]2O[C@H]2C[C@](C)(N)[C@H](O)[C@H](C)O2)Oc2ccc(cc2Cl)[C@H]1O [VANCOMYCIN] | – | – | 1 µg/mL (≈ 0.69 µM) | – | – | 1 µg/mL (≈ 0.69 µM) | > 64 µg/mL | ≥ 8 µg/mL | 0.5 µg/mL (≈ 0.345 µM) | ≥ 8 µg/mL | 0.25 µg/mL (≈ 0.173 µM) | ≥ 8 µg/mL | – | –
CCCCCCCCCCCCCCCCCC(=O)N1CCN(c2ccc(N3C[C@H](Cn4ccnn4)OC3=O)cc2F)CC1 | > 16 µg/mL | > 16 µg/mL | > 16 µg/mL | 1.58 | > 16 µg/mL | – | – | ≥ 8 µg/mL | > 16 µg/mL | ≥ 8 µg/mL | > 16 µg/mL | ≥ 8 µg/mL | – | –
CCCCCCCCCCCCCC(=O)N1CCN(c2ccc(N3C[C@H](Cn4ccnn4)OC3=O)cc2F)CC1 | > 16 µg/mL | > 16 µg/mL | > 16 µg/mL | 1.54 | > 16 µg/mL | – | – | ≥ 8 µg/mL | > 16 µg/mL | ≥ 8 µg/mL | > 16 µg/mL | ≥ 8 µg/mL | – | –
CCCCCCCCCC(=O)N1CCN(c2ccc(N3C[C@H](Cn4ccnn4)OC3=O)cc2F)CC1 | > 16 µg/mL | > 16 µg/mL | > 16 µg/mL | 1.5 | > 16 µg/mL | – | – | ≥ 8 µg/mL | > 16 µg/mL | ≥ 8 µg/mL | > 16 µg/mL | ≥ 8 µg/mL | – | –
CC(C)C(=O)N1CCN(c2ccc(N3C[C@H](Cn4ccnn4)OC3=O)cc2F)CC1 | 1 µg/mL (≈ 2.4 µM) | 2 µg/mL | 1 µg/mL (≈ 2.4 µM) | 2.32 | 2 µg/mL (≈ 4.8 µM) | 1 µg/mL (≈ 2.4 µM) | 1 µg/mL (≈ 2.4 µM) | ≥ 8 µg/mL | 0.5 µg/mL (≈ 1.2 µM) | ≥ 8 µg/mL | 1 µg/mL (≈ 2.4 µM) | ≥ 8 µg/mL | 2.62 | 1 µg/mL (≈ 2.4 µM)
CCCCCCCCC(=O)N1CCN(c2ccc(N3C[C@H](Cn4ccnn4)OC3=O)cc2F)CC1 | 8 µg/mL (≈ 16.4 µM) | > 16 µg/mL | 4 µg/mL (≈ 8.22 µM) | 1.78 | > 16 µg/mL | 4 µg/mL (≈ 8.22 µM) | 8 µg/mL (≈ 16.4 µM) | ≥ 8 µg/mL | > 16 µg/mL | ≥ 8 µg/mL | 8 µg/mL (≈ 16.4 µM) | ≥ 8 µg/mL | 2.09 | 4 µg/mL (≈ 8.22 µM)
O=C(C1CCCCC1)N1CCN(c2ccc(N3C[C@H](Cn4ccnn4)OC3=O)cc2F)CC1 | 1 µg/mL (≈ 2.19 µM) | 4 µg/mL | 1 µg/mL (≈ 2.19 µM) | 2.06 | 4 µg/mL (≈ 8.76 µM) | 1 µg/mL (≈ 2.19 µM) | 1 µg/mL (≈ 2.19 µM) | ≥ 8 µg/mL | 0.5 µg/mL (≈ 1.1 µM) | ≥ 8 µg/mL | 1 µg/mL (≈ 2.19 µM) | ≥ 8 µg/mL | 2.66 | 1 µg/mL (≈ 2.19 µM)
O=C1O[C@@H](Cn2ccnn2)CN1c1ccc(N2CCOCC2)c(F)c1 | 0.5 µg/mL (≈ 1.44 µM) | 1 µg/mL | 0.5 µg/mL (≈ 1.44 µM) | – | 1 µg/mL (≈ 2.88 µM) | 0.5 µg/mL (≈ 1.44 µM) | 1 µg/mL (≈ 2.88 µM) | ≥ 8 µg/mL | 0.5 µg/mL (≈ 1.44 µM) | ≥ 8 µg/mL | 0.5 µg/mL (≈ 1.44 µM) | ≥ 8 µg/mL | – | 0.5 µg/mL (≈ 1.44 µM)
